Test results from US11827628B2, “Compositions and methods for inhibition of the JAK pathway” (Rigel Pharmaceuticals, Inc., priority 2005, dated 2023).
Like-named read-outs stand apart in the source and are kept apart here.

Tested on: up-regulation of ICAM-1 (CD54) by IFNγ in A549 lung epithelial cells
Assay: A549 Epithelial Line Stimulated with IFNγ (ICAM-1 surface expression, FACS)
Assay type: cell-based, human
Details: ICAM-1 expression by FACS, read-out: IC50, Example 43
How it was run: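 ICAM-1 (CD54) flow cytometry on live-gated A549 cells, geometric mean versus dose giving EC50. Cells received IFNγ at 75 ng/mL for 24 h after a 1 h compound pre-treatment spanning 30 μM to 14 nM in medium with 5% FBS and 0.3% DMSO.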

[1] = Homo sapiens, A549, A549 epithelial line stimulated with IFNγ
[2] = A549 cells stimulated with IFNγ
[3] = Homo sapiens, A549, A549 cells stimulated with IFNγ

SMILES	IC50 [1] [µM]	also measured
Cc1cnc(Nc2cccc(S(N)(=O)=O)c2)nc1Nc1ccc(OCC(N)=O)cc1 [Compound I-109, N4-(4-Aminocarbonylmethoxyphenyl)-N2-(3-aminosulfonylphenyl)-5-methyl-2,4-pyrimidinediamine]	26	–
COc1cc(Nc2nc(Nc3ccc(S(N)(=O)=O)cc3)ncc2F)cc(OCC#N)c1OC [Compound I-1, N2-(4-Aminosulphonylphenyl)-N4-(3-cyanomethoxy-4,5-dimethoxyphenyl)-5-fluoro-2,4-pyrimidinediamine]	18.5	–
Cc1ccc(Nc2ncc(F)c(Nc3ccc(OCC(N)=O)c(F)c3)n2)cc1S(N)(=O)=O [Compound I-102, N4-(4-Aminocarbonylmethoxy-3-fluorophenyl)-N2-(3-aminosulfonyl-4-methylphenyl)-5-fluoro-2,4-pyrimidinediamine]	43.8	–
Cc1cnc(Nc2cccc(S(N)(=O)=O)c2)nc1Nc1ccc(OCC(=O)N(C)C)c(Cl)c1 [Compound I-135, N2-(3-Aminosulfonylphenyl)-N4-(3-chloro-4-dimethylaminocarbonylmethoxyphenyl)-5-methyl-2,4-pyrimidinediamine]	3.24	–
Cc1cnc(Nc2ccc(Cl)c(S(N)(=O)=O)c2)nc1Nc1ccc(OCC(=O)N(C)C)c(Cl)c1 [Compound I-141, N2-(3-Aminosulfonyl-4-chlorophenyl)-N4-(3-chloro-4-dimethylaminocarbonylmethoxyphenyl)-5-methyl-2,4-pyrimidinediamine]	15.6	–
Cc1noc(CCc2ccc(Nc3nc(Nc4cccc(S(N)(=O)=O)c4)ncc3F)cc2)n1 [III-106, N2-(3-Aminosulfonylphenyl)-5-fluoro-N4-[4-(3-methyl-1,2,4-oxadiazol-5-yl)ethylenephenyl]-2,4-pyrimidinediamine]	–	IC50 [2]: 5.9 µM
NC(=O)COc1ccc(Nc2nc(Nc3cccc(S(N)(=O)=O)c3)ncc2F)cc1F [Compound I-101, N4-(4-Aminocarbonylmethoxy-3-fluorophenyl)-N2-(3-aminosulfonylphenyl)-5-fluoro-2,4-pyrimidinediamine]	51.2	–
Cc1ccc(Nc2nc(Nc3cccc(S(N)(=O)=O)c3)ncc2F)cc1OCCN1CCOCC1 [Compound I-203, N2-(3-Aminosulfonylphenyl)-5-fluoro-N4-[4-methyl-3-(2-morpholinoethyloxy)phenyl]-2,4-pyrimidinediamine]	5.77	–
COc1ccc(Nc2nc(Nc3cccc(S(=O)(=O)NN4CCC(C)CC4)c3)ncc2F)cc1Cl [VI-9, N4-(3-Chloro-4-methoxyphenyl)-5-fluoro-N2-[3-(4-methylpipendin-1-yl)aminosulfonylphenyl]-2,4-pyrimidinediamine]	–	IC50 [2]: 9.96 µM
Cc1ccc(Nc2ncc(F)c(Nc3ccc(Oc4cccnc4)cc3)n2)cc1S(N)(=O)=O [II-12, N2-(3-Aminosulfonyl-4-methylphenyl)-5-fluoro-N4-[4-(3-pyridyloxy)phenyl]-2,4-pyrimidinediamine]	5.52	–
Cc1cc(COc2ccc(Nc3nc(Nc4cccc(S(N)(=O)=O)c4)ncc3F)cc2)no1 [Compound I-230, N2-(3-Aminosulfonylphenyl)-5-fluoro-N4-[4-(5-methylisoxazol-3-yl)methyleneoxyphenyl]-2,4-pyrimidinediamine]	10.5	–
Cc1cc(Nc2nc(Nc3ccc(S(N)(=O)=O)cc3)ncc2F)cc(C)c1N1CCN(C)CC1 [IX-44, N2-(4-Aminosulfonylphenyl)-N4-[3,5-dimethyl-4-(4-methylpiperazin-1-yl]phenyl)-5-fluoro-2,4-pyrimidinediamine]	–	IC50 [3]: 8.17 µM
NS(=O)(=O)c1ccc(Nc2ncc(F)c(Nc3ccc(OCCN4CCOCC4)cc3)n2)cc1 [Compound I-205, N2-(4-Aminosulfonylphenyl)-5-fluoro-N4-[4-(2-morpholinoethyloxy)phenyl)-2,4-pyrimidinediamine]	9.49	–
Cc1cnc(Nc2cccc(S(N)(=O)=O)c2)nc1Nc1ccc(OCC#N)cc1 [Compound I-58, N2-(3-Aminosulfonylphenyl)-N4-(4-cyanomethoxyphenyl)-5-methyl-2,4-pyrimidinediamine]	0.73	–
Cc1cc2ccc(CNc3nc(Nc4cccc(S(N)(=O)=O)c4)ncc3F)cc2[nH]1 [Compound X-3]	–	IC50 [3]: 4.98 µM
Cc1cc(COc2ccc(Nc3nc(Nc4cccc(S(=O)(=O)NCc5oc(=O)oc5C)c4)ncc3F)cc2)no1 [Compound I-247, N2-{3-[(N-5-Methyl-1,3-dioxolene-2-one-4-yl)methylene]aminosulfonylphenyl}-5-fluoro-N4-[4-(5-methylisoxazol-3-yl)methyleneoxyphenyl]-2,4-pyrimidinediamine]	11.1	–
COC(=O)c1ccc(Nc2nc(Nc3ccc(F)c(S(N)(=O)=O)c3)ncc2F)s1 [IX-48, N2-(3-Aminosulfonyl-4-fluorophenyl)-5-fluoro-N4-(5-methoxycarbonyl-thiophene-2-yl)-2,4-pyrimidinediamine]	–	IC50 [3]: 9.56 µM
Cc1ccc(Nc2ncc(C)c(Nc3ccc(OCC(=O)N(C)C)c(F)c3)n2)cc1S(N)(=O)=O [Compound I-139, N2-(3-Aminosulfonyl-4-methylphenyl)-N4-(4-dimethylaminocarbonylmethoxy-3-fluorophenyl)-5-methyl-2,4-pyrimidinediamine]	11.6	–
NC(=O)COc1ccc(Nc2nc(Nc3ccc(S(N)(=O)=O)cc3)ncc2F)cc1Cl [Compound I-97, N4-(4-Aminocarbonylmethoxy-3-chlorophenyl)-N2-(4-aminosulfonylphenyl)-5-fluoro-2,4-pyrimidinediamine]	31.1	–
COc1cc(Nc2nc(Nc3ccc(S(N)(=O)=O)cc3)ncc2F)ccc1OCC#N [Compound I-45, N2-(4-Aminosulfonylphenyl)-N4-(4-cyanomethoxy-3-methoxyphenyl)-5-fluoro-2,4-pyrimidinediamine]	17	–
Cc1ccc(Nc2ncc(C)c(Nc3ccc(OCC#N)cc3)n2)cc1S(N)(=O)=O [Compound I-59, N2-(3-Aminosulfonyl-4-methylphenyl)-N4-(4-cyanomethoxyphenyl)-5-methyl-2,4-pyrimidinediamine]	0.947	–

Second part, led by results:

IC50 [1] [µM]	SMILES	also measured
10.6	Cc1ccc(Nc2ncc(F)c(NCCc3ccc(-n4ccnc4)cc3)n2)cc1S(N)(=O)=O [III-88, N2-(3-Aminosulfonyl-4-methylphenyl)-5-fluoro-N4-[4-(1-imidazolyl)phenethyl]-2,4-pyrimidinediamine]	–
6.64	Cc1cc(Nc2nc(Nc3cccc(S(N)(=O)=O)c3)ncc2F)ccc1CCC#N [III-20, N2-(3-Aminosulfonylphenyl)-N4-[4-(2-cyanoethyl)-3-methylphenyl]-5-fluoro-2,4-pyrimidinediamine]	–
8.26	NS(=O)(=O)c1ccc(Nc2ncc(F)c(Nc3ccc(Cc4ccncc4)cc3)n2)cc1 [III-71, N2-(4-Aminosulfonylphenyl)-5-fluoro-N4-[4-(4-pyridinylmethyl)phenyl]-2,4-pyrimidinediamine]	–
3.52	Cc1cnc(Nc2ccc(Cl)c(S(N)(=O)=O)c2)nc1Nc1ccc(CCC#N)cc1 [III-12, N2-(3-Aminosulfonyl-4-chlorophenyl)-N4-[4-(2-cyanoethyl)phenyl]-5-methyl-2,4-pyrimidinediamine]	–
55.5	CN(C)C(=O)OCCc1ccc(Nc2nc(Nc3cccc(S(N)(=O)=O)c3)ncc2F)cc1 [III-57, N2-(3-Aminosulfonylphenyl)-N4-{4-[2-(dimethylaminocarbonyloxy)ethyl]phenyl}-5-fluoro-2,4-pyrimidinediamine]	–
